Test results published in DBAASP.
Converted amounts (≈) assume the structure as drawn. Blank lines part the entries; values can stand above or below the compound they belong to.

How the values were obtained:
Experiment in all cases: ≥ marks a high value that may be exact or a test limit, other limits are often not marked, values filed in µg/mL are converted to µM
[1] = test system: Bacillus subtilis ATCC 6051
[2] = test system: Escherichia coli NEB5alpha
Escherichia coli K-12 = test system: Escherichia coli K-12
[3] = test system: Pseudomonas aeruginosa ATCC 27853
[4] = test system: Enterococcus faecium ATCC 700221
[5] = test system: Escherichia coli ATCC 25922
[6] = test system: Staphylococcus aureus ATCC 33591
[7] = test system: Candida albicans ATCC 90028
[8] = test system: Escherichia coli ATCC 8739
[9] = test system: Staphylococcus aureus ATCC 43300
[10] = test system: Staphylococcus aureus ATCC 6538
[11] = test system: Staphylococcus aureus USA 300
Klebsiella pneumoniae = test system: Klebsiella pneumoniae
[12] = test system: Pseudomonas aeruginosa PAO1
[13] = test system: Staphylococcus aureus NCTC 8325-4
[14] = test system: Bacillus subtilis KCTC 3068
[15] = test system: Escherichia coli KCTC 1682
[16] = test system: Pseudomonas aeruginosa KCTC 1637
[17] = test system: Salmonella typhimurium KCTC 1926
[18] = test system: Staphylococcus aureus KCTC 1621
[19] = test system: Staphylococcus epidermidis KCTC 1917

SMILES: NCCCC[C@H](NC(=O)[C@H](CCC(=O)O)NC(=O)[C@H](CC(=O)O)NC(=O)[C@H](CCC(=O)O)NC(=O)[C@H](CC(=O)O)NC(=O)[C@H](CCC(=O)O)NC(=O)[C@@H](N)CC(=O)O)C(=O)N[C@@H](CCCN=C(N)N)C(=O)N[C@@H](CCC(N)=O)C(=O)N1CCC[C@H]1C(=O)N[C@@H](Cc1cnc[nH]1)C(=O)O [DEDEDEKRQPH]
- MIC [1]: ≥ 500 µM
- MIC [2]: ≥ 1000 µM

SMILES: CC[C@H](C)[C@H](NC(=O)[C@H](CCCCN)NC(=O)[C@H](CCCCN)NC(=O)[C@H](CC(C)C)NC(=O)[C@H](C)NC(=O)CNC(=O)[C@@H](NC(=O)[C@H](C)NC(=O)[C@H](CCCCN)NC(=O)[C@@H]1CCCN1C(=O)[C@H](CC(C)C)NC(=O)[C@H](CC(C)C)NC(=O)[C@H](CCCCN)NC(=O)[C@H](Cc1ccccc1)NC(=O)[C@H](Cc1ccccc1)NC(=O)[C@@H](N)Cc1ccccc1)[C@@H](C)CC)C(=O)O [FFFKLLPKAIGALKKI]
- MIC (Escherichia coli K-12): ≥ 128 µM
- MIC [3]: 64 µM (≈ 117 µg/mL)

SMILES: CC[C@H](C)[C@H](NC(=O)[C@H](CCCCN)NC(=O)[C@H](CCCCN)NC(=O)[C@H](CC(C)C)NC(=O)[C@H](CC(C)C)NC(=O)[C@H](CCCCN)NC(=O)[C@H](CCCCN)NC(=O)[C@@H](NC(=O)[C@H](CCCN=C(N)N)NC(=O)[C@H](CCCCN)NC(=O)[C@H](CC(C)C)NC(=O)[C@H](CC(C)C)NC(=O)CN)[C@@H](C)CC)C(=O)N[C@@H](CCCCN)C(=O)N[C@@H](CCCCN)C(=O)N[C@@H](CC(C)C)C(=O)N[C@@H](CC(C)C)C(N)=O [GLLKRIKKLLKKIKKLL]
- MIC [4]: 6.3 µM (≈ 12.8 µg/mL)
- MIC [5]: 12.5 µM (≈ 25.4 µg/mL)
- MIC [3]: 12.5 µM (≈ 25.4 µg/mL)
- MIC [6]: 12.5 µM (≈ 25.4 µg/mL)

SMILES: CC[C@H](C)[C@H](NC(=O)[C@H](CCCCN)NC(=O)[C@@H](NC(=O)[C@H](CO)NC(=O)[C@H](CC(N)=O)NC(=O)[C@H](Cc1c[nH]c2ccccc12)NC(=O)[C@H](CC(C)C)NC(=O)CN)[C@@H](C)CC)C(=O)N[C@@H](C)C(=O)NCC(=O)N[C@@H](CCCCN)C(=O)N[C@@H](CCCCN)C(=O)N[C@@H](CC(C)C)C(=O)N[C@@H](Cc1ccccc1)C(=O)N[C@H](C(=O)N[C@@H](CC(N)=O)C(=O)N[C@H](C(=O)N[C@@H](CC(C)C)C(=O)N[C@@H](CC(=O)O)C(=O)N[C@@H](CCCCN)C(=O)N[C@H](C(=O)N[C@@H](CCCN=C(N)N)C(=O)N[C@@H](CO)C(=O)N[C@@H](CCCCN)C(=O)N[C@H](C(=O)N[C@@H](C)C(=O)NCC(=O)NCC(=O)N[C@@H](CO)C(=O)O)C(C)C)[C@@H](C)CC)C(C)C)C(C)C [GLWNSIKIAGKKLFVNVLDKIRSKVAGGS]
- MIC [7]: ≥ 100 µM
- MIC [8]: 3.1 µM (≈ 9.61 µg/mL)
- MIC [9]: 25 µM (≈ 77.5 µg/mL)
- MIC [10]: 6.3 µM (≈ 19.5 µg/mL)

SMILES: CC[C@H](C)[C@H](NC(=O)[C@H](Cc1cnc[nH]1)NC(=O)[C@H](CCCCN)NC(=O)[C@@H](NC(=O)[C@@H](NC(=O)[C@H](CC(=O)O)NC(=O)[C@H](Cc1ccccc1)NC(=O)[C@H](Cc1c[nH]c2ccccc12)NC(=O)CN)C(C)C)C(C)C)C(=O)N[C@@H](C)C(=O)N[C@@H](CCCCN)C(=O)N[C@@H](CCCNC(=N)N)C(=O)N[C@@H](Cc1ccccc1)C(N)=O [GWFDVVKHIAKRF]
- MIC (Escherichia coli K-12): 12.5 µM (≈ 20 µg/mL)
- MIC [11]: ≥ 50 µM

SMILES: CC(C)C[C@H](NC(=O)[C@H](CC(C)C)NC(=O)[C@H](CCC(N)=O)NC(=O)[C@H](CCC(=O)O)NC(=O)[C@H](CC(C)C)NC(=O)[C@@H](N)Cc1ccc(O)cc1)C(=O)N[C@@H](CCCN=C(N)N)C(=O)O [YLEQLLR]
- MIC [1]: ≥ 53.5 µM
- MIC [5]: 40.1 µM (≈ 37.5 µg/mL)
- MIC [2]: ≥ 241 µM

Now from value to compound:

- MIC [1]: ≥ 292 µM
- MIC [5]: 583 µM (≈ 1650 µg/mL)
- MIC [2]: ≥ 292 µM
SMILES: CC[C@H](C)[C@H](NC(=O)[C@@H](N)Cc1cnc[nH]1)C(=O)N[C@@H](CCC(N)=O)C(=O)N[C@@H](CCCCN)C(=O)N[C@@H](CCC(=O)O)C(=O)N[C@@H](CC(=O)O)C(=O)N[C@H](C(=O)N1CCC[C@H]1C(=O)N[C@@H](CO)C(=O)N[C@@H](CCC(=O)O)C(=O)N[C@@H](CCCN=C(N)N)C(=O)N[C@@H](Cc1ccc(O)cc1)C(=O)N[C@@H](CC(C)C)C(=O)NCC(=O)N[C@@H](Cc1ccc(O)cc1)C(=O)N[C@@H](CC(C)C)C(=O)N[C@@H](CCC(=O)O)C(=O)N[C@@H](CCC(N)=O)C(=O)N[C@@H](CC(C)C)C(=O)N[C@@H](CC(C)C)C(=O)N[C@@H](CCCN=C(N)N)C(=O)N[C@@H](CC(C)C)C(=O)N[C@@H](CCCCN)C(=O)O)C(C)C [HIQKEDVPSERYLGYLEQLLRLK]

- MIC (Escherichia coli K-12): 15.6 µM (≈ 22.9 µg/mL)
- MIC (Klebsiella pneumoniae): > 500 µM
- MIC [12]: 15.6 µM (≈ 22.9 µg/mL)
- MIC [13]: ≥ 250 µM
SMILES: CC[C@H](C)[C@H](N)C(=O)N[C@@H](CCCCN)C(=O)N[C@@H](CCCCN)C(=O)N[C@H](C(=O)N[C@H](C(=O)N[C@@H](CCCCN)C(=O)N[C@@H](CCCCN)C(=O)N[C@H](C(=O)N[C@H](C(=O)N[C@@H](CCCCN)C(=O)N[C@@H](CCCCN)C(=O)N[C@H](C(N)=O)[C@@H](C)CC)[C@@H](C)CC)[C@@H](C)CC)[C@@H](C)CC)[C@@H](C)CC [IKKIIKKIIKKI]

- MIC [14]: 2 µM (≈ 3.36 µg/mL)
- MIC [15]: 2 µM (≈ 3.36 µg/mL)
- MIC [16]: 4 µM (≈ 6.72 µg/mL)
- MIC [17]: 2 µM (≈ 3.36 µg/mL)
- MIC [18]: 4 µM (≈ 6.72 µg/mL)
- MIC [19]: 1 µM (≈ 1.68 µg/mL)
SMILES: CC[C@H](C)[C@H](NC(=O)[C@H](CCCN=C(N)N)NC(=O)[C@H](CCCCN)NC(=O)[C@H](CCCN=C(N)N)NC(=O)[C@@H](NC(=O)[C@H](CCCN=C(N)N)NC(=O)[C@@H](N)CCCCN)[C@@H](C)CC)C(=O)N[C@@H](CCCCN)C(=O)N[C@@H](CCCCN)C(=O)N[C@@H](Cc1c[nH]c2ccccc12)C(=O)N[C@@H](CC(C)C)C(=O)N[C@@H](CCCN=C(N)N)C(N)=O [KRIRKRIKKWLR]

- MIC [1]: 2.67 µM (≈ 8.6 µg/mL)
- MIC [5]: 171 µM (≈ 550 µg/mL)
- MIC [2]: 21.4 µM (≈ 68.8 µg/mL)
SMILES: CC[C@H](C)[C@H](NC(=O)[C@H](Cc1c[nH]c2ccccc12)NC(=O)[C@@H]1CCCN1C(=O)[C@H](CCCCN)NC(=O)[C@H](CCSC)NC(=O)[C@H](C)NC(=O)[C@H](CCCCN)NC(=O)[C@H](CCC(N)=O)NC(=O)[C@H](Cc1cnc[nH]1)NC(=O)[C@H](CCC(N)=O)NC(=O)[C@H](Cc1ccc(O)cc1)NC(=O)[C@@H](NC(=O)[C@@H](N)[C@@H](C)O)C(C)C)C(=O)N[C@@H](CCC(N)=O)C(=O)N1CCC[C@H]1C(=O)N[C@@H](CCCCN)C(=O)N[C@H](C(=O)N[C@@H](CCCCN)C(=O)N[C@H](C(=O)N[C@H](C(=O)N1CCC[C@H]1C(=O)N[C@@H](Cc1ccc(O)cc1)C(=O)N[C@H](C(=O)N[C@@H](CCCN=C(N)N)C(=O)N[C@@H](Cc1ccc(O)cc1)C(=O)N[C@@H](CC(C)C)C(=O)O)C(C)C)[C@@H](C)CC)C(C)C)[C@@H](C)O [TVYQHQKAMKPWIQPKTKVIPYVRYL]

- MIC [2]: ≥ 493 µM
SMILES: CC[C@H](C)[C@H](NC(=O)[C@@H]1CCCN1C(=O)[C@H](CCSC)NC(=O)[C@H](CC(=O)O)NC(=O)[C@H](CCCN=C(N)N)NC(=O)[C@H](CCC(N)=O)NC(=O)[C@@H]1CCCN1C(=O)[C@H](Cc1ccc(O)cc1)NC(=O)[C@@H]1CCCN1C(=O)[C@@H](N)C(C)C)C(=O)N[C@@H](CCC(N)=O)C(=O)N[C@@H](C)C(=O)N[C@@H](Cc1ccccc1)C(=O)N[C@@H](CC(C)C)C(=O)O [VPYPQRDMPIQAFL]
